Assay results reported in the supplement of paper PMC10307832.

How the values were obtained:
Test in all cases: relative viability (nuclei count vs DMSO), 5 days (fraction); higher = more cells survive
Midostaurin + Lapatinib = compound: CO[C@@H]1[C@H](N(C)C(=O)c2ccccc2)C[C@H]2O[C@]1(C)n1c3ccccc3c3c4c(c5c6ccccc6n2c5c31)C(=O)NC4 [Midostaurin] + CS(=O)(=O)CCNCc1ccc(-c2ccc3ncnc(Nc4ccc(OCc5cccc(F)c5)c(Cl)c4)c3c2)o1 [Lapatinib] (partner 2 µM)
Outline: (§1)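 For relative viability, nuclei counts in treated wells were divided by those in vehicle wells. Lung cancer cell lines had been pin-tool dosed in 1536-well plates the day after seeding and cultured for 5 days, then fixed and stained in one step (final 0.05% Triton X-100, 1% formaldehyde, 1 ug/ml Hoechst) and imaged at 4×. Doses were one drug alone or a fixed anchor-drug dose plus five library-drug doses (not always all listed) in √10 steps, and values are duplicate-plate medians.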

[1] = compound: COc1cc(-c2nn([C@H]3CC[C@H](N4CCN(C(C)=O)CC4)CC3)c3ncnc(N)c23)ccc1NC(=O)c1cc2ccccc2n1C + CC1(C)CCC(c2ccc(Cl)cc2)=C(CN2CCN(c3ccc(C(=O)NS(=O)(=O)c4ccc(N[C@H](CCN5CCOCC5)CSc5ccccc5)c(S(=O)(=O)C(F)(F)F)c4)cc3)CC2)C1 [Navitoclax] (partner 0.5 µM)
Outline: as §1

[2] = compound: COc1cc(-c2nn([C@H]3CC[C@H](N4CCN(C(C)=O)CC4)CC3)c3ncnc(N)c23)ccc1NC(=O)c1cc2ccccc2n1C + CCNC(=O)c1noc(-c2cc(C(C)C)c(O)cc2O)c1-c1ccc(CN2CCOCC2)cc1 [Luminespib] (partner 0.01 µM)
Outline: as §1

[3] = compound: COc1cc(-c2nn([C@H]3CC[C@H](N4CCN(C(C)=O)CC4)CC3)c3ncnc(N)c23)ccc1NC(=O)c1cc2ccccc2n1C + Cc1nc(Nc2ncc(C(=O)Nc3c(C)cccc3Cl)s2)cc(N2CCN(CCO)CC2)n1 [Dasatinib] (partner 0.075 µM)
Outline: as §1

[4] = compound: COc1cc(-c2nn([C@H]3CC[C@H](N4CCN(C(C)=O)CC4)CC3)c3ncnc(N)c23)ccc1NC(=O)c1cc2ccccc2n1C + NC(=O)Nc1cc(-c2cccc(F)c2)sc1C(=O)N[C@H]1CCCNC1 [AZD7762] (partner 0.2 µM)
Outline: as §1

| Cell Line | relative viability (Midostaurin + Lapatinib; first compound 0.01 µM) | relative viability (Midostaurin + Lapatinib; first compound 0.03162 µM) | relative viability (Midostaurin + Lapatinib; first compound 0.1 µM) | relative viability (Midostaurin + Lapatinib; first compound 0.3162 µM) | relative viability ([1]; first compound 0.0128 µM) | relative viability ([1]; first compound 0.04048 µM) | relative viability ([1]; first compound 0.128 µM) | relative viability ([1]; first compound 1.28 µM) | relative viability ([2]; first compound 0.0128 µM) | relative viability ([2]; first compound 0.04048 µM) | relative viability ([2]; first compound 0.128 µM) | relative viability ([2]; first compound 1.28 µM) | relative viability ([3]; first compound 0.0128 µM) | relative viability ([3]; first compound 0.04048 µM) | relative viability ([3]; first compound 0.128 µM) | relative viability ([3]; first compound 1.28 µM) | relative viability ([4]; first compound 0.0128 µM) | relative viability ([4]; first compound 0.04048 µM) | relative viability ([4]; first compound 0.128 µM) | relative viability ([4]; first compound 1.28 µM) |
| --- | --- | --- | --- | --- | --- | --- | --- | --- | --- | --- | --- | --- | --- | --- | --- | --- | --- | --- | --- | --- |
| A549 | 0.954 | 0.854 | 1 | 0.212 | 1.22 | 1.22 | 1.17 | 1.15 | – | – | – | – | – | – | – | – | – | – | – | – |
| COR-L23 | 0.922 | 1.1 | 0.835 | 0.855 | 0.972 | 1.29 | 0.9 | 0.982 | 0.713 | 0.667 | 0.688 | 0.736 | 0.503 | 0.529 | 0.462 | 0.665 | – | – | – | – |
| COR-L 105 | 0.364 | 0.395 | 0.357 | 0.344 | 0.728 | 0.813 | 0.78 | 0.456 | 0.641 | 0.707 | 0.737 | 0.479 | 0.323 | 0.448 | 0.287 | 0.362 | – | – | – | – |
| Calu-6 | 0.94 | 1.02 | 1.02 | 0.986 | 0.881 | 0.983 | 0.817 | 0.722 | – | – | – | – | – | – | – | – | – | – | – | – |
| EBC-1 | 0.208 | 0.212 | 0.217 | 0.222 | 0.422 | 0.501 | 0.422 | 0.339 | – | – | – | – | – | – | – | – | – | – | – | – |
| IA-LM | 0.886 | 0.579 | 0.984 | 0.551 | 0.87 | 1.08 | 0.87 | 0.968 | – | – | – | – | – | – | – | – | – | – | – | – |
| LCLC-103H | – | – | – | – | – | – | – | – | 0.985 | 1.18 | 0.879 | 0.835 | 0.538 | 0.472 | 0.41 | 0.449 | 0.828 | 0.787 | 0.759 | 0.703 |
| NCI-H520 | 0.866 | 0.942 | 0.762 | 0.781 | 1.16 | 1.06 | 0.995 | 0.861 | 0.219 | 0.211 | 0.174 | 0.243 | 0.211 | 0.273 | 0.236 | 0.307 | – | – | – | – |
| NCI-H522 | – | – | – | – | – | – | – | – | 1.25 | 1.21 | 1.3 | 0.971 | 0.794 | 0.843 | 0.809 | 0.897 | 0.73 | 0.848 | 0.909 | 0.892 |
| NCI-H661 | 0.389 | 0.449 | 0.411 | 0.384 | – | – | – | – | 0.901 | 1.08 | 0.948 | 0.946 | 0.923 | 0.765 | 0.829 | 0.94 | – | – | – | – |
| NCI-H1299 | 0.959 | 0.93 | 0.871 | 0.883 | 1.06 | 1.15 | 1.08 | 1.13 | – | – | – | – | – | – | – | – | – | – | – | – |
| NCI-H1563 | 0.929 | 0.97 | 0.77 | 0.924 | – | – | – | – | 0.535 | 0.55 | 0.525 | 0.5 | 0.481 | 0.484 | 0.532 | 0.488 | – | – | – | – |
| NCI-H1623 | – | – | – | – | – | – | – | – | 0.473 | 0.514 | 0.451 | 0.433 | 0.526 | 0.497 | 0.557 | 0.572 | – | – | – | – |
| NCI-H1648 | – | – | – | – | – | – | – | – | – | – | – | – | – | – | – | – | 0.686 | 0.609 | 0.75 | 0.566 |
| NCI-H1650 | 0.757 | 0.791 | 0.878 | 0.581 | 1.34 | 1.5 | 1.44 | 1.1 | 0.162 | 0.194 | 0.19 | 0.181 | 0.265 | 0.304 | 0.32 | 0.29 | – | – | – | – |
| NCI-H2009 | 0.811 | 0.823 | 0.902 | 0.861 | 1.16 | 1.16 | 1.2 | 1.14 | 1.1 | 1.14 | 1.04 | 1.08 | 0.298 | 0.267 | 0.31 | 0.382 | – | – | – | – |
| NCI-H2023 | 0.851 | 0.621 | 0.777 | 0.555 | 0.999 | 1.06 | 1.02 | 0.835 | 0.697 | 0.983 | 0.622 | 0.767 | 0.559 | 0.668 | 0.524 | 0.663 | – | – | – | – |
| NCI-H2228 | 0.966 | 1.07 | 1.23 | 0.972 | 0.825 | 1.17 | 0.91 | 0.745 | 0.184 | 0.145 | 0.141 | 0.115 | 0.474 | 0.436 | 0.52 | 0.456 | – | – | – | – |
| NCI-H2342 | – | – | – | – | – | – | – | – | 0.723 | 0.717 | 0.87 | 0.61 | 0.312 | 0.309 | 0.335 | 0.323 | 0.464 | 0.422 | 0.477 | 0.361 |
| SK-LU-1 | 0.806 | 1.17 | 0.823 | 0.572 | 0.95 | 0.801 | 0.544 | 0.567 | 0.213 | 0.187 | 0.203 | 0.141 | 0.201 | 0.236 | 0.211 | 0.243 | – | – | – | – |
| SK-MES-1 | 0.455 | 0.439 | 0.395 | 0.491 | 1.37 | 1.39 | 1.14 | 1.15 | 0.686 | 0.928 | 0.791 | 0.375 | 0.44 | 0.34 | 0.378 | 0.384 | – | – | – | – |
| SW 900 | – | – | – | – | – | – | – | – | 0.178 | 0.175 | 0.184 | 0.159 | 0.616 | 0.707 | 0.487 | 0.578 | 0.547 | 0.564 | 0.612 | 0.402 |
| SW 1573 | 1.2 | 1.17 | 1.06 | 1.07 | 0.817 | 1.02 | 1.02 | 0.716 | 0.225 | 0.229 | 0.231 | 0.42 | 0.496 | 0.743 | 0.627 | 0.612 | – | – | – | – |
